{"source": "patent US6794389B2", "about": "“Quinazoline derivatives and drugs” (Nippon Shinyaku Co., Ltd., priority 2000, dated 2004)", "key": {"[1]": {"system": "acetic acid-induced writhing reactions in mice", "assay": "Acetic acid-writhing test in mice", "type": "in vivo, mice (Slc:ddY)", "settings": "10 nmol/animal intrathecal, male mice, counted over 20 minutes after 0.6% acetic acid intraperitoneally; for Number of writhings (individual animal): animal No. 1-10; for Number of writhings (Mean): mean of 10 animals (saline control 17.67)", "method": "Ten male mice (Slc:ddY, 4 to 5 weeks old) were assigned to each group. The dorsal skin of each mouse was incised laterally in a length of approximately 3 cm, and after acclimatizing for 30 minutes or longer a 27G needle fitted on the tip of a silicone tube connected to a microsyringe was inserted into a position around L3-L4, through which 5 μL of a drug solution was infused, whereby effecting an administration into a spinal subarachnoid cavity. The tested substance was dissolved in physiological saline, and administered at 10 nmol/animal. In a control group, physiological saline was administered similarly.\nA mouse which had been fasting since the day before the experiment was placed in an observation cage (20×20×15 cm), where it was allowed to be acclimatized over a period of 30 minutes or longer, and then received 100 μL per 10 g body weight of a 0.6% acetic acid solution intraperitoneally via a 27G needle. The number of the writhing reactions with stretching the abdomen was counted over 20 minutes after the administration of acetic acid, and the obtained data were represented as means±standard errors. Only the screening data were subjected to the test for a significant difference by a t test between the two groups of the control and a treatment group or by one-way analysis of variance among multiple groups followed by Dunnett's multiple comparison test, and the significant difference was regarded to be present when p<0.05."}, "μ-receptor": {"target": "T1, μ-receptor (Homo sapiens, UniProt P35372)", "T1 construct": "purchased Receptor Biology", "T1 sequence (P35372 whole entry)": "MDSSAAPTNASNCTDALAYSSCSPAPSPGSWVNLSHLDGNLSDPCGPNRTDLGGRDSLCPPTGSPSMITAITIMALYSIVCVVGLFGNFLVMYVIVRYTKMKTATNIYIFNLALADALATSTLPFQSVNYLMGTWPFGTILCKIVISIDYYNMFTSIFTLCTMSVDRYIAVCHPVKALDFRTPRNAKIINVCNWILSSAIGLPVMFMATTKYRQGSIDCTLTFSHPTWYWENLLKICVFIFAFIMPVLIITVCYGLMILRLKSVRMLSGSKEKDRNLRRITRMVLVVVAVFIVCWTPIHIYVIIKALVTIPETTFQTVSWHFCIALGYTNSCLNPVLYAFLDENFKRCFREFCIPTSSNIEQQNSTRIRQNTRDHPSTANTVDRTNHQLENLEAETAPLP", "assay": "μ-Receptor binding assay ([3H]diprenorphine, cell membrane preparation)", "settings": "[3H]diprenorphine 0.13 nM, 25° C., 90 minutes; Ki calculated from IC50 and Kd; read-out: Affinity for μ-receptor Ki", "method": "A human μ-receptor-expressing cell membrane preparation (Receptor Biology) was prepared so that it contained 8.5 μg/mL of the membrane protein in a Tris buffer [50 mM Tris-HCl (pH 7.8), 5 MM MgCl2, 1 mM EGTA, 0.1% BSA]. To this, [^3H]diprenorphine (diluted at the final concentration of 0.13 nM with the Tris buffer) and a tested substance were added and the mixture was incubated at 25° C. for 90 minutes. Using a cell harvester and a washing solution [50 mM Tris-HCl (pH 7.8), 4° C.], the membrane was recovered onto a GF/B filter which had been pretreated with 0.3% PEI, which was then washed further 4 times. The filter was transferred to a vial, to which a scintillator was added, and the radioactivity was measured using a liquid scintillation counter. A non-specific binding was regarded as a binding in the presence of 100 μM naloxone, and a specific binding was obtained by subtracting the non-specific binding from the total binding. From a ratio of binding inhibition in the presence of the tested substance, and IC50 value was obtained, and was then used together with the Kd value for [^3H]diprenorphine to calculate the Ki value of the tested substance."}, "nociceptin receptor": {"target": "T2, nociceptin receptor (Homo sapiens, UniProt P41146)", "T2 construct": "expressed in transfected cells", "T2 sequence (P41146 whole entry)": "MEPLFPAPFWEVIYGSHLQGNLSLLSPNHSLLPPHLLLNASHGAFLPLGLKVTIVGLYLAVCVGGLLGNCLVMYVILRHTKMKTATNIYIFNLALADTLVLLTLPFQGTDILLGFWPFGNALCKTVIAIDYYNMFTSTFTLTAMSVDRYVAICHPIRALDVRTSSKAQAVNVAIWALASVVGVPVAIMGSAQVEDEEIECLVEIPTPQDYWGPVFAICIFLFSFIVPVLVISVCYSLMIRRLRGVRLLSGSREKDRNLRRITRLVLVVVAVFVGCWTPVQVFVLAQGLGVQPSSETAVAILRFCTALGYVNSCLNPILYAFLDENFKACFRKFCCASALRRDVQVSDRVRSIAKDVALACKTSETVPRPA", "assay": "Nociceptin receptor binding assay ([3H]nociceptin, cell membrane suspension)", "settings": "[3H]nociceptin 0.08 nM, 25° C., 60 minutes; Ki calculated from IC50 and Kd; read-out: Affinity for nociceptin receptors Ki", "method": "A cell membrane suspension obtained from a human nociceptin-expressing cell was prepared so that it contained 5 to 10 μg/mL of the membrane protein in a Tris buffer [50 mM Tris-HCl (pH 7.8), 5 mM MgCl2, 1 mM EGTA, 0.1% BSA]. To this, [^3H]nociceptin (diluted at the final concentration of 0.08 nM with the Tris buffer) and a tested substance were added and the mixture was incubated at 25° C. for 60 minutes. Using a cell harvester and a washing solution [50 mM Tris-HCl (pH 7.8), 4° C.], the membrane was recovered onto a GF/B filter which had been pretreated with 0.3% PEI, which was then washed further 4 times. The filter was transferred to a vial, to which a scintillator was added, and the radioactivity was measured using a liquid scintillation counter. Noted that a non-specific binding was regarded as a binding in the presence of 10 μM nociceptin, and a specific binding was obtained by subtracting the non-specific binding from the total binding. From a ratio of binding inhibition in the presence of the tested substance, an IC50 value was obtained, and was then used together with the Kd value for [^3H]nociceptin to calculate the K1 value for the tested substance."}}, "note": "Where “and” joins values, the source holds several entries; their conditions need not be identical. Identical values can stand only once. Counter-ions that a name gives are not always drawn.", "data": [{"compound": "COc1ccc2nc(C=Cc3ccccn3)nc(NC(C)CCCCCNC(=N)N)c2c1.Cl.Cl.Cl", "note": "(stereo not drawn) [Example 48, N-Amidino-6-{6-methoxy-2-[2-(2-pyridyl)ethenyl]quinazolin-4-yl}aminoheptylamine Trihydrochloride]", "values": [{"measurement": "Number of writhings (individual animal)", "setting": "[1]; listed as Ex. 48, Trihydrochloride", "value": "7 and 0 (4×) and 6 and 16 and 1 and 14 and 12"}, {"measurement": "Number of writhings (Mean)", "setting": "[1]", "value": 5.60}]}, {"compound": "COc1ccc2nc(C=Cc3ccccn3)nc(NCCN(CCc3ccccc3)C(=N)N)c2c1", "note": "[Example 66, N-Amidino-2-{6-methoxy-2-[2-(2-pyridyl)ethenyl]quinazolin-4-yl}aminoethyl-phenylethylamine Trihydrochloride]", "values": [{"measurement": "Ki", "setting": "μ-receptor", "value": 22, "unit": "nM"}, {"measurement": "Ki", "setting": "nociceptin receptor", "value": 4, "unit": "nM"}]}, {"compound": "COc1ccc2nc(C=Cc3ccccn3)nc(NC[C@H]3CC[C@@H](CNC(=N)N)CC3)c2c1", "note": "[Example 44, cis-N-Amidino-N′-{6-methoxy-2-[2-(2-pyridyl)ethenyl]quinazolin-4-yl}-1,4-bis(aminomethyl)cyclohexane Trihydrochloride]", "values": [{"measurement": "Ki", "setting": "μ-receptor", "value": 30, "unit": "nM"}, {"measurement": "Ki", "setting": "nociceptin receptor", "value": 7, "unit": "nM"}]}, {"compound": "Cc1ccc2nc(C=Cc3ccccn3)nc(NCCCCCCNC(=N)N)c2c1.Cl.Cl.Cl", "note": "[Example 46, N-Amidino-N′-{6-methyl-2-[2-(2-pyridyl)ethenyl]quinazolin-4-yl}-1,6-hexanediamine Trihydrochloride]", "values": [{"measurement": "Ki", "setting": "μ-receptor", "value": 23, "unit": "nM"}, {"measurement": "Ki", "setting": "nociceptin receptor", "value": 3, "unit": "nM"}, {"measurement": "Number of writhings (individual animal)", "setting": "[1]; listed as Ex. 46, Trihydrochloride", "value": "0 (4×) and 13 and 6 and 3 and 10 and 4 and 9"}, {"measurement": "Number of writhings (Mean)", "setting": "[1]", "value": 4.50}]}, {"compound": "COc1ccc2nc(NC(=O)c3ccc(Cl)cc3)nc(N[C@H]3CCCC[C@H]3NC(=N)N)c2c1", "note": "(relative stereo) [Example 2, cis-N-Amidino-2-[2-(4-chlorobenzoylamino)-6-methoxyquinazolin-4-yl]aminocyclohexylamine Dihydrochloride]", "values": [{"measurement": "Ki", "setting": "μ-receptor", "value": 193, "unit": "nM"}, {"measurement": "Ki", "setting": "nociceptin receptor", "value": 6, "unit": "nM"}]}, {"compound": "COc1ccc2nc(C=Cc3ccccn3)nc(N[C@H]3CC[C@@H](CNC(=N)N)C[C@H]3C)c2c1", "note": "(relative stereo) [Example 68, cis-4-Guanidinomethyl-cis-2-methyl-N-{6-methoxy-2-[2-(2-pyridyl)ethenyl]quinazolin-4-yl}cyclohexylamine Trihydrochloride]", "values": [{"measurement": "Ki", "setting": "μ-receptor", "value": 32, "unit": "nM"}, {"measurement": "Ki", "setting": "nociceptin receptor", "value": 3, "unit": "nM"}]}, {"compound": "COc1ccc2nc(C=Cc3ccc(Cl)cc3)nc(NCCCCCCNC(=N)N)c2c1", "note": "[Example 16, N-Amidino-N′-[2-(4-chlorostyryl)-6-methoxyquinazolin-4-yl]-1,6-hexanediamine Dihydrochloride]", "values": [{"measurement": "Ki", "setting": "μ-receptor", "value": 38, "unit": "nM"}, {"measurement": "Ki", "setting": "nociceptin receptor", "value": 9, "unit": "nM"}]}, {"compound": "cis-4-Guanidinomethyl-N-{2-[2-(2-pyridyl)ethenyl]-6-methoxyquinazolin-4-yl}cyclohexylamine Trihydrochloride [Example 4]", "values": [{"measurement": "Ki", "setting": "μ-receptor", "value": 63, "unit": "nM"}, {"measurement": "Ki", "setting": "nociceptin receptor", "value": 8, "unit": "nM"}, {"measurement": "Number of writhings (individual animal)", "setting": "[1]; listed as Ex. 4, Trihydrochloride", "value": "18 and 12 (2×) and 10 and 0 (2×) and 2 and 11 and 1 and 13"}, {"measurement": "Number of writhings (Mean)", "setting": "[1]", "value": 7.90}]}, {"compound": "COc1ccc2nc(C=Cc3ccccn3)nc(NCCCCCCNC(=N)N)c2c1.Cl.Cl", "note": "[Example 23, N-Amidino-N′-{6-methoxy-2-[2-(2-pyridyl)ethenyl]quinazolin-4-yl}-1,6-hexanediamine Dihydrochloride]", "values": [{"measurement": "Ki", "setting": "μ-receptor", "value": 19, "unit": "nM"}, {"measurement": "Ki", "setting": "nociceptin receptor", "value": 3, "unit": "nM"}, {"measurement": "Number of writhings (individual animal)", "setting": "[1]; listed as Ex. 23, Dihydrochloride", "value": "14 and 0 (5×) and 6 and 18 and 28 and 3"}, {"measurement": "Number of writhings (Mean)", "setting": "[1]", "value": 6.90}]}]}
